Measurements: US12186306B2, “Methods of treatment for cystic fibrosis” (Vertex Pharmaceuticals Incorporated, priority 2020, dated 2025)
Counter-ions that a name gives are not always drawn.

Key:
[1] = test system: subjects with gating mutations; experiment: Clinical trial: absolute change in SwCl at 12 weeks in subjects with gating mutations on stable ivacaftor treatment; safety and tolerability; assay type: in vivo, human; settings: for Absolute change in SwCl at Week 12: LS mean (SE): subjects with gating mutations
Procedure: In a clinical trial, a comparative study was conducted on absolute changes in SwCl at 12 weeks in subjects with gating mutations where were on stable treatment with ivacaftor.

[2] = Relative stability of solid (polymorphic) forms of Compound II; assay type: physicochemical
[3] = Comparison of calcium salt hydrate forms: dissolution, solubility, exposure; assay type: physicochemical; settings: than the other calcium salt hydrate forms

SMILES: [2H]C([2H])([2H])C(c1cc(C(C)(C)C)c(NC(=O)c2c[nH]c3ccccc3c2=O)cc1O)(C([2H])([2H])[2H])C([2H])([2H])[2H] [Compound I, N-(2-(tert-butyl)-5-hydroxy-4-(2-(methyl-d3)propan-2-yl-1,1,1,3,3,3-d6)phenyl)-4-oxo-1,4-dihydroquinoline-3-carboxamide]
- Safety and tolerability ([1]; 150 mg and 250 mg for 12 weeks): generally safe and well tolerated
- SwCl compared to ivacaftor baseline ([1]; 150 mg dose, week 12): decrease in SwCl
- Absolute change in SwCl at Week 12: LS mean difference vs Ivacaftor ([1]; 150 mg qd vs ivacaftor 150 mg q12h, week 12): 2.4
- Absolute change in SwCl at Week 12: LS mean (SE) ([1]; 150 mg qd, N = 23, week 12): 3.3
- SwCl at week 12 compared to the ivacaftor baseline ([1]; 250 mg dose): improvement in SwCl
- Absolute change in SwCl at Week 12: LS mean difference vs Ivacaftor ([1]; 250 mg qd vs ivacaftor 150 mg q12h, week 12): −7.3
- Absolute change in SwCl at Week 12: LS mean (SE) ([1]; 250 mg qd, N = 24, week 12): −6.5

SMILES: CC1(C)C[C@@H]2CCCNc3cccc(n3)S(=O)(=O)NC(=O)c3ccc(-n4ccc(OCCC5C6(CC6)C56CC6)n4)nc3N1C2 [Compound II calcium salt hydrate Form A, (14S)-8-[3-(2-{Dispiro[2.0.2.1]heptan-7-yl}ethoxy)-1H-pyrazol-1-yl]-12,12-dimethyl-2λ6-thia-3,9,11,18,23-pentaazatetracyclo[17.3.1.111,14.05,10]tetracosa-1(22),5,7,9,19(23),20-hexaene-2,2,4-trione]
- Kinetic preference among calcium salt hydrate forms [2]: most kinetically favored calcium salt hydrate form
- Dissolution [3]: higher
- Exposure [3]: higher
- Solubility [3]: higher

SMILES: CC1(C)C[C@@H]2CCCNc3cccc(n3)S(=O)(=O)NC(=O)c3ccc(-n4ccc(OCCC5C6(CC6)C56CC6)n4)nc3N1C2 [Compound II free Form A, (14S)-8-[3-(2-{Dispiro[2.0.2.1]heptan-7-yl}ethoxy)-1H-pyrazol-1-yl]-12,12-dimethyl-2λ6-thia-3,9,11,18,23-pentaazatetracyclo[17.3.1.111,14.05,10]tetracosa-1(22),5,7,9,19(23),20-hexaene-2,2,4-trione]
- Polymorphic form stability ([2]; water activity ≤0.95 at ambient temperature): most stable polymorphic form

SMILES: CC1(C)C[C@@H]2CCCNc3cccc(n3)S(=O)(=O)NC(=O)c3ccc(-n4ccc(OCCC5C6(CC6)C56CC6)n4)nc3N1C2 [Compound II calcium salt hydrate Form D, (14S)-8-[3-(2-{Dispiro[2.0.2.1]heptan-7-yl}ethoxy)-1H-pyrazol-1-yl]-12,12-dimethyl-2λ6-thia-3,9,11,18,23-pentaazatetracyclo[17.3.1.111,14.05,10]tetracosa-1(22),5,7,9,19(23),20-hexaene-2,2,4-trione]
- Polymorphic form stability ([2]; in IPA/water at water activity 0.1-0.95 from ambient temperature to 60° C.): most stable polymorphic form
- Stability among calcium salt hydrate forms ([2]; under certain conditions, such as in mixtures of ethanol and water): most stable form of calcium salt hydrate

SMILES: CC(C)(C)c1cc(C(C)(C)C)c(NC(=O)c2c[nH]c3ccccc3c2=O)cc1O [Ivacaftor, reference compound]
- Absolute change in SwCl at Week 12: LS mean (SE) ([1]; 150 mg q12h, N = 11, week 12): 0.9
